Laboratory results as given in PubChem BioAssay AID248 (DTP/NCI, 2004).
Where “and” joins values, the source holds several entries; their conditions need not be identical. Equal values may be shown once. Inconclusive results and toxic doses are left out.

Test system: L1210 leukemia ip in BDF1 mice, survival T/C
Assay: NCI In Vivo Anticancer Drug Screen. Data for tumor model L1210 Leukemia (intraperitoneal) in B6D2F1 (BDF1) mice
Conditions: higher = longer survival
Method in brief: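 Transplantable tumor model; survival measured in treated vs vehicle control mice. Value = treated/control.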

For `CC[C@H]1CN2CCc3cc(OC)c(OC)cc3[C@@H]2C[C@@H]1C[C@H]1NCCc2cc(OC)c(OC)cc21`, the T/C (endpoint: mean survival time, dose: 0.93 mg/kg/injection, schedule: Q04DX003 (ip), vehicle: water) was 108 % of control, the T/C (endpoint: mean survival time, dose: 1.0 mg/kg/injection, schedule: Q01DX009 (ip), vehicle: saline) was 109 % of control and the T/C (endpoint: mean survival time, dose: 1.75 mg/kg/injection, schedule: Q01DX009 (ip), vehicle: saline) was 115 % of control and 121 % of control. The T/C (endpoint: mean survival time, dose: 1.8 mg/kg/injection, schedule: Q01DX009 (ip), vehicle: saline) was 104 % of control and 120 % of control, the T/C (endpoint: mean survival time, dose: 1.86 mg/kg/injection, schedule: Q04DX003 (ip), vehicle: water) was 105 % of control and the T/C (endpoint: mean survival time, dose: 1.88 mg/kg/injection, schedule: Q01DX001 (ip), vehicle: water) was 102 % of control. For the same compound, the T/C (endpoint: mean survival time, dose: 2.0 mg/kg/injection, schedule: Q01DX005 (iv), vehicle: saline) was 108 % of control, the T/C (endpoint: mean survival time, dose: 2.0 mg/kg/injection, schedule: Q01DX005 (oral), vehicle: saline) was 103 % of control and the T/C (endpoint: mean survival time, dose: 2.0 mg/kg/injection, schedule: Q01DX005 (sc), vehicle: saline) was 105 % of control. For the same compound, the T/C (endpoint: mean survival time, dose: 2.0 mg/kg/injection, schedule: Q01DX006 (ip), vehicle: saline) was 112 % of control, the T/C (endpoint: mean survival time, dose: 2.0 mg/kg/injection, schedule: Q01DX009 (ip), vehicle: saline) was 108 % of control and the T/C (endpoint: mean survival time, dose: 2.0 mg/kg/injection, schedule: Q04DX003 (ip), vehicle: saline) was 100 % of control. The T/C (endpoint: mean survival time, dose: 2.0 mg/kg/injection, schedule: Q04DX003 (iv), vehicle: saline) was 110 % of control, the T/C (endpoint: mean survival time, dose: 2.0 mg/kg/injection, schedule: Q04DX003 (oral), vehicle: saline) was 110 % of control and the T/C (endpoint: mean survival time, dose: 2.0 mg/kg/injection, schedule: Q04DX003 (sc), vehicle: saline) was 106 % of control. For the same compound, the T/C (endpoint: mean survival time, dose: 2.0 mg/kg/injection, schedule: Q08DX002 (iv), vehicle: saline) was 106 % of control, the T/C (endpoint: mean survival time, dose: 2.0 mg/kg/injection, schedule: Q08DX002 (oral), vehicle: saline) was 103 % of control and the T/C (endpoint: mean survival time, dose: 2.5 mg/kg/injection, schedule: Q04DX003 (ip), vehicle: water) was 104 % of control. For the same compound, the T/C (endpoint: mean survival time, dose: 3.0 mg/kg/injection, schedule: Q01DX009 (oral), vehicle: saline) was 112 % of control, the T/C (endpoint: mean survival time, dose: 3.75 mg/kg/injection, schedule: Q01DX001 (ip), vehicle: water) was 103 % of control and the T/C (endpoint: mean survival time, dose: 3.75 mg/kg/injection, schedule: Q04DX003 (ip), vehicle: water) was 104 % of control. The T/C (endpoint: mean survival time, dose: 4.0 mg/kg/injection, schedule: Q01DX009 (ip), vehicle: saline) was 97 % of control, the T/C (endpoint: mean survival time, dose: 4.0 mg/kg/injection, schedule: Q04DX003 (ip), vehicle: water) was 113 % of control and 116 % of control and 117 % of control and the T/C (endpoint: mean survival time, dose: 4.0 mg/kg/injection, schedule: Q04DX003 (iv), vehicle: saline) was 108 % of control. For the same compound, the T/C (endpoint: mean survival time, dose: 4.0 mg/kg/injection, schedule: Q04DX003 (oral), vehicle: saline) was 108 % of control, the T/C (endpoint: mean survival time, dose: 4.0 mg/kg/injection, schedule: Q04DX003 (sc), vehicle: saline) was 110 % of control and the T/C (endpoint: mean survival time, dose: 4.0 mg/kg/injection, schedule: Q08DX002 (ip), vehicle: saline) was 112 % of control. For the same compound, the T/C (endpoint: mean survival time, dose: 4.0 mg/kg/injection, schedule: Q08DX002 (oral), vehicle: saline) was 110 % of control, the T/C (endpoint: mean survival time, dose: 4.0 mg/kg/injection, schedule: Q08DX002 (sc), vehicle: saline) was 108 % of control and the T/C (endpoint: mean survival time, dose: 4.0 mg/kg/injection, schedule: Q## X003 (ip), vehicle: saline) was 115 % of control. For the same compound, the T/C (endpoint: mean survival time, dose: 5.0 mg/kg/injection, schedule: Q04DX003 (ip), vehicle: water) was 109 % of control, the T/C (endpoint: mean survival time, dose: 6.0 mg/kg/injection, schedule: Q01DX009 (oral), vehicle: saline) was 108 % of control and the T/C (endpoint: mean survival time, dose: 6.0 mg/kg/injection, schedule: Q01DX015 (ip), vehicle: saline) was 102 % of control. The T/C (endpoint: mean survival time, dose: 7.5 mg/kg/injection, schedule: Q01DX001 (ip), vehicle: water) was 106 % of control, the T/C (endpoint: mean survival time, dose: 8.0 mg/kg/injection, schedule: Q01DX006 (ip), vehicle: saline) was 156 % of control and the T/C (endpoint: mean survival time, dose: 8.0 mg/kg/injection, schedule: Q04DX003 (ip), vehicle: water) was 109 % of control and 124 % of control. The T/C (endpoint: mean survival time, dose: 8.0 mg/kg/injection, schedule: Q04DX003 (iv), vehicle: saline) was 122 % of control, the T/C (endpoint: mean survival time, dose: 8.0 mg/kg/injection, schedule: Q04DX003 (oral), vehicle: saline) was 116 % of control and the T/C (endpoint: mean survival time, dose: 8.0 mg/kg/injection, schedule: Q04DX003 (sc), vehicle: saline) was 113 % of control. The T/C (endpoint: mean survival time, dose: 8.0 mg/kg/injection, schedule: Q08DX002 (ip), vehicle: saline) was 120 % of control, the T/C (endpoint: mean survival time, dose: 8.0 mg/kg/injection, schedule: Q08DX002 (oral), vehicle: saline) was 110 % of control and the T/C (endpoint: mean survival time, dose: 8.0 mg/kg/injection, schedule: Q08DX002 (sc), vehicle: saline) was 111 % of control. For the same compound, the T/C (endpoint: mean survival time, dose: 8.0 mg/kg/injection, schedule: Q## X002 (ip), vehicle: saline) was 118 % of control, the T/C (endpoint: mean survival time, dose: 8.0 mg/kg/injection, schedule: Q## X003 (ip), vehicle: saline) was 123 % of control and the T/C (endpoint: mean survival time, dose: 8.0 mg/kg/injection, schedule: Q## X008 (ip), vehicle: saline) was 110 % of control. For the same compound, the T/C (endpoint: mean survival time, dose: 8.0 mg/kg/injection, schedule: Q## X024 (ip), vehicle: saline) was 117 % of control, the T/C (endpoint: mean survival time, dose: 9.0 mg/kg/injection, schedule: Q01DX Z (ip), vehicle: methylcellulose (MC)) was 92 % of control and the T/C (endpoint: mean survival time, dose: 10.0 mg/kg/injection, schedule: Q04DX009 (ip), vehicle: water) was 121 % of control. The T/C (endpoint: mean survival time, dose: 15.0 mg/kg/injection, schedule: Q01DX001 (ip), vehicle: water) was 117 % of control, the T/C (endpoint: mean survival time, dose: 15.0 mg/kg/injection, schedule: Q04DX003 (ip), vehicle: Klucel (hydroxypropylcellulose) (HPC)) was 152 % of control and the T/C (endpoint: mean survival time, dose: 15.0 mg/kg/injection, schedule: Q04DX009 (ip), vehicle: water) was 160 % of control. The T/C (endpoint: mean survival time, dose: 16.0 mg/kg/injection, schedule: Q01DX001 (ip), vehicle: saline) was 121 % of control, the T/C (endpoint: mean survival time, dose: 16.0 mg/kg/injection, schedule: Q04DX003 (ip), vehicle: water) was 161 % of control and the T/C (endpoint: mean survival time, dose: 16.0 mg/kg/injection, schedule: Q## X003 (ip), vehicle: saline) was 171 % of control. For the same compound, the T/C (endpoint: mean survival time, dose: 20.0 mg/kg/injection, schedule: Q04DX003 (ip), vehicle: Klucel (hydroxypropylcellulose) (HPC)) was 162 % of control and 164 % of control, the T/C (endpoint: mean survival time, dose: 20.0 mg/kg/injection, schedule: Q04DX009 (ip), vehicle: water) was 168 % of control and the T/C (endpoint: mean survival time, dose: 22.2 mg/kg/injection, schedule: Q01DX001 (ip), vehicle: carboxymethylcellulose (CMC)) was 102 % of control. The T/C (endpoint: mean survival time, dose: 25.0 mg/kg/injection, schedule: Q04DX003 (ip), vehicle: saline with Tween-80) was 164 % of control, the T/C (endpoint: mean survival time, dose: 25.0 mg/kg/injection, schedule: Q04DX009 (ip), vehicle: water) was 118 % of control and the T/C (endpoint: mean survival time, dose: 30.0 mg/kg/injection, schedule: Q04DX003 (ip), vehicle: Klucel (hydroxypropylcellulose) (HPC)) was 95 % of control and 107 % of control. For the same compound, the T/C (endpoint: mean survival time, dose: 30.0 mg/kg/injection, schedule: Q04DX003 (ip), vehicle: saline with Tween-80) was 115 % of control, the T/C (endpoint: mean survival time, dose: 32.0 mg/kg/injection, schedule: Q04DX003 (ip), vehicle: water) was 154 % of control and the T/C (endpoint: mean survival time, dose: 32.0 mg/kg/injection, schedule: Q08DX002 (ip), vehicle: saline) was 152 % of control. The T/C (endpoint: mean survival time, dose: 33.35 mg/kg/injection, schedule: Q01DX001 (ip), vehicle: carboxymethylcellulose (CMC)) was 107 % of control, the T/C (endpoint: median survival time, dose: 3.75 mg/kg/injection, schedule: Q04DX003 (ip), vehicle: saline) was 116 % of control and the T/C (endpoint: median survival time, dose: 4.0 mg/kg/injection, schedule: Q04DX003 (ip), vehicle: saline) was 103 % of control. For the same compound, the T/C (endpoint: median survival time, dose: 7.5 mg/kg/injection, schedule: Q04DX003 (ip), vehicle: saline) was 122 % of control, the T/C (endpoint: median survival time, dose: 8.0 mg/kg/injection, schedule: Q01DX001 (ip), vehicle: saline) was 112 % of control and the T/C (endpoint: median survival time, dose: 15.0 mg/kg/injection, schedule: Q04DX003 (ip), vehicle: saline) was 161 % of control and 168 % of control. The T/C (endpoint: median survival time, dose: 16.0 mg/kg/injection, schedule: Q04DX003 (ip), vehicle: saline) was 166 % of control, the T/C (endpoint: median survival time, dose: 20.0 mg/kg/injection, schedule: Q04DX003 (ip), vehicle: saline) was 177 % of control and 179 % of control and the T/C (endpoint: median survival time, dose: 30.0 mg/kg/injection, schedule: Q04DX003 (ip), vehicle: saline) was 101 % of control. For the same compound, the T/C (endpoint: median survival time, dose: 32.0 mg/kg/injection, schedule: Q04DX003 (ip), vehicle: saline) was 110 % of control and the T/C (endpoint: median survival time, dose: 40.0 mg/kg/injection, schedule: Q04DX003 (ip), vehicle: saline) was 69 % of control.
With `Cc1cccc([N+](=O)[O-])n1` the T/C (endpoint: mean survival time, dose: 25.0 mg/kg/injection, schedule: Q01DX009 (ip), vehicle: saline with Tween-80) was 94 % of control, the T/C (endpoint: mean survival time, dose: 50.0 mg/kg/injection, schedule: Q01DX009 (ip), vehicle: saline with Tween-80) was 94 % of control and the T/C (endpoint: mean survival time, dose: 100.0 mg/kg/injection, schedule: Q04DX003 (ip), vehicle: saline with Tween-80) was 89 % of control.
With `O=S(O)c1ccccc1` the T/C (endpoint: mean survival time, dose: 100.0 mg/kg/injection, schedule: Q01DX009 (ip), vehicle: saline) was 96 % of control, the T/C (endpoint: mean survival time, dose: 200.0 mg/kg/injection, schedule: Q01DX009 (ip), vehicle: saline) was 105 % of control and the T/C (endpoint: mean survival time, dose: 400.0 mg/kg/injection, schedule: Q01DX009 (ip), vehicle: saline) was 103 % of control.
In the case of `O=C(Nc1ccc(NC(=O)C(Cl)Cl)cc1)C(Cl)Cl`, the T/C (endpoint: mean survival time, dose: 100.0 mg/kg/injection, schedule: Q04DX003 (ip), vehicle: Klucel (hydroxypropylcellulose) (HPC)) is reported as 97 % of control, the T/C (endpoint: mean survival time, dose: 200.0 mg/kg/injection, schedule: Q04DX003 (ip), vehicle: Klucel (hydroxypropylcellulose) (HPC)) is reported as 101 % of control and the T/C (endpoint: mean survival time, dose: 400.0 mg/kg/injection, schedule: Q04DX003 (ip), vehicle: Klucel (hydroxypropylcellulose) (HPC)) is reported as 90 % of control.
